IC50 data for 18 compounds are collected here from BindingDB's records for doi:10.1002/cbic.200400108 (Schering, 2005).

What is called IC50 is the point on the concentration scale where inhibition reaches its midpoint. The low end stands for inhibition by little substance, the high end for a need for much substance.

Common to all, as to experiment: Inhibition Assay
Assay [1] deals with Cyclin-dependent kinase 2 (Homo sapiens, UniProt P24941). Conditions: pH 8; 22 °C. The source says: (§1) Inhibition assay using CDK and selective kinases such as gsk3, EGFR, c-Kit, InsR and KDR.
Assay [2] concerns the target Epidermal growth factor receptor (Homo sapiens, UniProt P00533). As to conditions: pH 7; 22 °C.
From the text: as §1

The target of assay [3] is Insulin receptor (Homo sapiens, UniProt P06213). As to conditions: pH 7.5; 22 °C.
From the text: as §1

Assay [4] concerns the target Vascular endothelial growth factor receptor 2 (Homo sapiens, UniProt P35968). Conditions: pH 7; 22 °C.
From the text: as §1

Values joined by “and” are separate entries in the source; they are usually repeats but may differ in a detail not shown here. Equal entries are not always repeated.

Epidermal growth factor receptor, sequence (P00533 whole entry): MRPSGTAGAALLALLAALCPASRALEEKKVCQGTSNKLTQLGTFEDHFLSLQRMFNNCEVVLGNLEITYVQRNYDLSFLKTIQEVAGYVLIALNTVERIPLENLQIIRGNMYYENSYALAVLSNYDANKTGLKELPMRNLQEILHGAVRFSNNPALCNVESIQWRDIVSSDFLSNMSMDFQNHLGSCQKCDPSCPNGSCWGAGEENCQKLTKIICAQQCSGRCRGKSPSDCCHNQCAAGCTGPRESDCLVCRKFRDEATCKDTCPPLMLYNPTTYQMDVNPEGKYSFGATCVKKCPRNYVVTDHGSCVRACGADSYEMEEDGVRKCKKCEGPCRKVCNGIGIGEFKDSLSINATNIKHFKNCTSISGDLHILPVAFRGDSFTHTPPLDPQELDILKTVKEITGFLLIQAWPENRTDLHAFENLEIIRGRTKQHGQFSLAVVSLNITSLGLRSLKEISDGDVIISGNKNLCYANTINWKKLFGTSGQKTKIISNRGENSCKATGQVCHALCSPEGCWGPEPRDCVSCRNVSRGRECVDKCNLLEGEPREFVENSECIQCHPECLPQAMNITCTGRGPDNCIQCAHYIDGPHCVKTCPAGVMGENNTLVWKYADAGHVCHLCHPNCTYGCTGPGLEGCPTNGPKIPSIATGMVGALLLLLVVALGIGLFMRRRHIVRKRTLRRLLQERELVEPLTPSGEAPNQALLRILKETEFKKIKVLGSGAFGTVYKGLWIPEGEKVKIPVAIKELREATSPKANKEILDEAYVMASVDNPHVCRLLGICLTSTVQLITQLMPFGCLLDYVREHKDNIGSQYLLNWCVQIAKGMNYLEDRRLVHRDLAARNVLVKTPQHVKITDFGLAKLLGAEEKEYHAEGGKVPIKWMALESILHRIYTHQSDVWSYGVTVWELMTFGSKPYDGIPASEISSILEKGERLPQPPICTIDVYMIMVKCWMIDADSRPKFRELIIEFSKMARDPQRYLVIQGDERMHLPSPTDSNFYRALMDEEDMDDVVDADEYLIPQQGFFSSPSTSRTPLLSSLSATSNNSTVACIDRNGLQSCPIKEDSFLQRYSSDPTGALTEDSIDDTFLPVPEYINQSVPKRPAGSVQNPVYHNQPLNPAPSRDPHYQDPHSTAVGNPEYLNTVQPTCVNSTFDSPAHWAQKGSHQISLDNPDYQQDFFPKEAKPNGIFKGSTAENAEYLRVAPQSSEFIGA
Vascular endothelial growth factor receptor 2, sequence (P35968 whole entry): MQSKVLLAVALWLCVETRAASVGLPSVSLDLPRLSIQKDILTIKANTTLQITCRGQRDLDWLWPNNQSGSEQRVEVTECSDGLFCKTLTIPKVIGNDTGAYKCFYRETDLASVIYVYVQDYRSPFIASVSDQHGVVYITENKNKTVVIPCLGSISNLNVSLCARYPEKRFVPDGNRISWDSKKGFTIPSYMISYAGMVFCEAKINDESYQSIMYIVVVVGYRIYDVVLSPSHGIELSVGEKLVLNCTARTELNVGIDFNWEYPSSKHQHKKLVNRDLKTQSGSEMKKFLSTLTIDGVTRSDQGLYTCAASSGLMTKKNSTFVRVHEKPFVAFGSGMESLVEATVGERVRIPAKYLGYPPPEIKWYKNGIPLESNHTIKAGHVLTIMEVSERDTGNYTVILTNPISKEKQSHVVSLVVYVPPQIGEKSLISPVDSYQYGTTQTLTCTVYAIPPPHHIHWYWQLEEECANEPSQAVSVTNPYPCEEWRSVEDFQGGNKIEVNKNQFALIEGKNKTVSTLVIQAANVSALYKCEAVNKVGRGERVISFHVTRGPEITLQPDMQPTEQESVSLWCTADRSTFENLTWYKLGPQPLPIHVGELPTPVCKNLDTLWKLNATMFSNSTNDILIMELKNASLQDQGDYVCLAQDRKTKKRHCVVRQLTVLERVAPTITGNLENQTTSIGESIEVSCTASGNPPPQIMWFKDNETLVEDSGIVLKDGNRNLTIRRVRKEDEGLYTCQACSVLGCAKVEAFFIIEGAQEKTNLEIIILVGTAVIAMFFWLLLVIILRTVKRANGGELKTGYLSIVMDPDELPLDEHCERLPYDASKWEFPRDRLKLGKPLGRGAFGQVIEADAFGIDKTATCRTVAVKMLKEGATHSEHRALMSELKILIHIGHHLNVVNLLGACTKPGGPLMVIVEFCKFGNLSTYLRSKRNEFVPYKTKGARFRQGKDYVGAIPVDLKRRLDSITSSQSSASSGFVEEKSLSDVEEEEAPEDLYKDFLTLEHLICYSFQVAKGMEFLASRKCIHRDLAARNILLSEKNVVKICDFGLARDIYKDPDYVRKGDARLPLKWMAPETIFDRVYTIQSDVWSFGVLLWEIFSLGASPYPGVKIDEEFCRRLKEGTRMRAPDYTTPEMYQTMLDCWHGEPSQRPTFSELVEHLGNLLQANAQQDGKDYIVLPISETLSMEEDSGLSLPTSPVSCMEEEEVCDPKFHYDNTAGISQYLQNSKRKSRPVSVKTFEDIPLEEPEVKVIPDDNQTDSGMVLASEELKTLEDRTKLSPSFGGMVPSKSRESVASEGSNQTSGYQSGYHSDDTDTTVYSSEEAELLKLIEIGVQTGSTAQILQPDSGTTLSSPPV
Insulin receptor, sequence (P06213 28-758 limits assumed): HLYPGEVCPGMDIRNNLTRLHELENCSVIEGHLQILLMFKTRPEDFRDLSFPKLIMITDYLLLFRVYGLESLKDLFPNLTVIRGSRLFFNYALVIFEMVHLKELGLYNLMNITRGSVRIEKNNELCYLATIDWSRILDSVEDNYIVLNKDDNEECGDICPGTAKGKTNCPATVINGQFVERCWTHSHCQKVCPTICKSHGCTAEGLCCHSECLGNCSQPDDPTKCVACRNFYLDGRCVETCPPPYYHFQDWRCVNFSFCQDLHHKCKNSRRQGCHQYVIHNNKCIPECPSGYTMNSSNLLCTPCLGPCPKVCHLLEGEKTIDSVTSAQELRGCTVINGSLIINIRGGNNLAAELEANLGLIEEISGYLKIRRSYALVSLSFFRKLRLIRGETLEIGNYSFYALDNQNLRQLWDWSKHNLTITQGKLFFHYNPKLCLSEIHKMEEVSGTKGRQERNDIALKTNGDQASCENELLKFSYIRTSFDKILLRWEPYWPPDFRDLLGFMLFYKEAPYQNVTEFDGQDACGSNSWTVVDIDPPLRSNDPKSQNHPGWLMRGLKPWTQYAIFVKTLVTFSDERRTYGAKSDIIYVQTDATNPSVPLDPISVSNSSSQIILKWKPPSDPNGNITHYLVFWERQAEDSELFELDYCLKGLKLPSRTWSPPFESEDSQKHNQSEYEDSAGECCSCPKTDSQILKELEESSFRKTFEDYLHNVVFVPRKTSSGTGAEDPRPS
Insulin receptor, sequence (P06213 763-1382 limits assumed): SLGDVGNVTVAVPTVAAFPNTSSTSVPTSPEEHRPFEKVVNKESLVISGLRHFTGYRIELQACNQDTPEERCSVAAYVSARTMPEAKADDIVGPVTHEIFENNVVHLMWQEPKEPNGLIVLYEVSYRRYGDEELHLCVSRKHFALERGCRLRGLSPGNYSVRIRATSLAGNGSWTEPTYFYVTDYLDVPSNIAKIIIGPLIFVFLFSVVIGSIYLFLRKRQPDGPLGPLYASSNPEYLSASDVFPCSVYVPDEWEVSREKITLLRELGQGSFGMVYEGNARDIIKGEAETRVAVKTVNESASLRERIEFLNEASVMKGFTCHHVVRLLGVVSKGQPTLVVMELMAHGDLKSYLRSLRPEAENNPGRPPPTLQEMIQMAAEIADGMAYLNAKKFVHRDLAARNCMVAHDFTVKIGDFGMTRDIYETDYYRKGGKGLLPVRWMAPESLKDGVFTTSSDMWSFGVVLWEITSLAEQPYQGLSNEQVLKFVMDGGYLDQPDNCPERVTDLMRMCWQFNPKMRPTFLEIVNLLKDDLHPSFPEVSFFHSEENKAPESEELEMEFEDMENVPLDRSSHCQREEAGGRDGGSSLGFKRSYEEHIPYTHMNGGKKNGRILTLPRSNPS

Consider `CN(C)S(=O)(=O)c1ccc2c(c1)/C(=C1/Nc3ccccc3/C1=N\OCCO[C@@H]1O[C@H](CO)[C@@H](O)[C@H](O)[C@H]1O)C(=O)N2` [Indirubin derivative, 36 (X=NO)], for which the midpoint of inhibition in assay [1], the IC50, lay at 80 nM. For the compound `CN(C)CCN(C)S(=O)(=O)c1ccc2c(c1)C(C1=Nc3ccccc3C1(C)O)C(=O)N2` (stereo unspecified) [Indirubin derivative, 28b], the IC50 in assay [2], in assay [3] and in assay [4] was greater than 10000 nM throughout.

In the case of `CN(C)C1CCN(S(=O)(=O)c2ccc3c(c2)C(=C2Nc4ccccc4C2=O)C(=O)N3)CC1` [Indirubin derivative, 36 (X=O)], the IC50 in assay [1] is 20 nM.

For the compound `CN(C)S(=O)(=O)c1ccc2c(c1)C(=C1Nc3ccccc3C1=O)C(=O)N2` [Indirubin derivative, 8], it took 40 nM to reach half-maximal inhibition in assay [1] (IC50). Still for that read-out and setting: the result for `CC1(O)C(C2C(=O)Nc3ccc(S(=O)(=O)N4CCC(O)CC4)cc32)=Nc2ccccc21` (stereo unspecified) [Indirubin derivative, 37] reads 1600 nM. Regarding `C=CCC1(O)C(C2C(=O)Nc3ccc(S(=O)(=O)N(C)CCN(C)C)cc32)=Nc2ccccc21` (stereo unspecified) [Indirubin derivative, 30b], the IC50 in assay [2], in assay [3] and in assay [4] was greater than 10000 nM in each case.

With `O=C1Nc2ccc(S(=O)(=O)O)cc2C1=C1Nc2ccccc2C1=O` [Indirubin derivative, 20], the half-maximal inhibitory concentration (IC50) in assay [2], in assay [3] and in assay [4] was greater than 10000 nM in each case.

Turning to `CN(C)CCN(C)S(=O)(=O)c1ccc2c(c1)/C(=C1/Nc3ccccc3/C1=N\OCCO[C@@H]1O[C@H](CO)[C@@H](O)[C@H](O)[C@H]1O)C(=O)N2` [Indirubin derivative, 25], 90 nM corresponded to half-maximal inhibition in assay [1] (IC50). Take `CN(C)S(=O)(=O)c1ccc2c(c1)C(C1=Nc3ccccc3C1(O)C(O)CO)C(=O)N2` (stereo unspecified) [Indirubin derivative, 31b]: the half-inhibitory concentration (IC50) in assay [1] was 3000 nM and > 10000 nM. Consider `CN(C)S(=O)(=O)c1ccc2c(c1)C(C1=Nc3ccccc3C1(C)O)C(=O)N2` (stereo unspecified) [Indirubin derivative, 27b], for which the half-inhibitory concentration (IC50) in assay [1] was 70 nM and 600 nM. As for `O=C1Nc2ccccc2/C1=C1/Nc2ccccc2C1=O` [2-[(3Z)-2-oxo-2,3-dihydro-1H-indol-3-ylidene]-2,3-dihydro-1H-indol-3-one], half-maximal inhibition in assay [1] (IC50) was put at 2000 nM. For the compound `CC1(O)C(C2C(=O)Nc3ccc(Br)cc32)=Nc2ccccc21` (stereo unspecified) [Indirubin derivative, 26], the IC50 in assay [1] was 3000 nM. The same measure, in the same setting: the figure for `CN(C)CCN(C)S(=O)(=O)c1ccc2c(c1)C(c1[nH]c3ccccc3c1N=O)C(=O)N2` (stereo unspecified) [Indirubin derivative, 23] is 40 nM. Consider `O=C1Nc2ccc(Br)cc2C1=C1Nc2ccccc2C1=O`, for which the concentration for half-maximal inhibition (IC50) in assay [2], in assay [3] and in assay [4] was greater than 10000 nM in each case. Regarding `CN(C)CCN(C)S(=O)(=O)c1ccc2c(c1)C(=C1Nc3ccccc3C1=O)C(=O)N2` [Indirubin derivative, 22], in assay [1], the IC50 was 10 nM. Still for that read-out and setting: the result for `O=C(O)CCNS(=O)(=O)c1ccc2c(c1)C(=C1Nc3ccccc3C1=O)C(=O)N2` [Indirubin derivative, 34] reads 1500 nM; that for `CN(C[C@H](O)[C@@H](O)[C@H](O)[C@H](O)CO)S(=O)(=O)c1ccc2c(c1)C(=C1Nc3ccccc3C1=O)C(=O)N2` [Indirubin derivative, 35], 450 nM; that for `O=C1Nc2ccc(S(=O)(=O)NCCO)cc2C1=C1Nc2ccccc2C1=O` [Indirubin derivative, 33], 80 nM.
